Experimental data published in patent US6638960B2, “Halogenobenzimidazoles and their use as microbicides” (Bayer Aktiengesellschaft, priority 1995, dated 2003).

Test system: Phytophthora infestans
Experiment: whole plant or invertebrate
Format: in vivo
Details: in Solanum lycopersicum, 72 h, read-out: Efficacy in % based on the untreated control at an active compound concentration of 50 ppm

SMILES	pest or weed control at 50 ppm
Cc1noc(C)c1S(=O)(=O)n1c(Br)nc2cc(Cl)c(Cl)cc21	95%
Cc1noc(C)c1S(=O)(=O)n1c(Cl)nc2ccc(Sc3ccccc3)cc21 [drawing 110]	99%
Cc1noc(C)c1S(=O)(=O)n1c(Cl)nc2cc3c(cc21)OC(F)(F)O3 [drawing 109]	99%
CN(C)S(=O)(=O)n1c(Br)nc2cc3c(cc21)OC(F)(F)C(F)(F)O3	86%
Cc1onc(N)c1S(=O)(=O)n1c(Cl)nc2cc3c(cc21)OC(F)(F)C(F)(F)O3	97%
Cc1noc(C)c1S(=O)(=O)n1c(Cl)nc2ccccc21	99%
Cc1noc(C)c1S(=O)(=O)n1c(Br)nc2cc3c(cc21)OC(F)(F)O3 [drawing 100]	99%
Cc1noc(C)c1S(=O)(=O)n1c(Br)nc2cc3c(cc21)OC(F)(F)C(F)(F)O3 [drawing 101]	97%
Cc1onc(N)c1S(=O)(=O)n1c(Br)nc2cc3c(cc21)OC(F)(F)O3	95%
COc1ccc2c(c1)nc(Cl)n2S(=O)(=O)c1c(C)noc1C	96%

Test system: Plasmopara viticola
Experiment: Plasmopara test (vines)/protective
Format: in vivo
Details: 50 ppm active compound; vines sprayed protectively; evaluated 6 days after inoculation; 100% = no disease

SMILES	Efficacy in % based on the untreated control at an active compound concentration of 50 ppm
Cc1noc(C)c1S(=O)(=O)n1c(Cl)nc2cc3c(cc21)OC(F)(F)O3 [drawing 118]	100%
Cc1noc(C)c1S(=O)(=O)n1c(Cl)nc2ccc(Sc3ccccc3)cc21 [drawing 119]	100%
Cc1noc(C)c1S(=O)(=O)n1c(Br)nc2cc3c(cc21)OC(F)(F)C(F)(F)O3 [drawing 115]	93%
Cc1noc(C)c1S(=O)(=O)n1c(Br)nc2cc3c(cc21)OC(F)(F)O3 [drawing 114]	99%

Test system: not given
Experiment: not given
Details: not given

SMILES	melting point
Clc1nc2cc3c(cc2[nH]1)OCCO3	150 °C
FC1(F)Oc2cc3nc[nH]c3cc2OC1(F)F	70 to 74 °C
FC1(F)Oc2cc3nc(Br)[nH]c3cc2OC1(F)F	170 to 174 °C
Cc1noc(C)c1S(=O)(=O)n1c(Br)nc2cc3c(cc21)OC(F)(F)O3	130 to 134 °C
